Results taken from patent publication US20230017045A1, “PYRIDINE AND PYRIMIDINE CARBOXYLATE HERBICIDES AND METHODS OF USE THEREOF” (Dow AgroSciences LLC, priority 2017, published 2023).

Tested on: not given
Assay: not given
Conditions: not given
In the case of `COC(=O)c1nc(-c2ccc(C(F)(F)F)cc2Cl)cc(C)c1Cl` [F33, methyl 3-chloro-6-(2-chloro-4-(trifluoromethyl)phenyl)-4-methylpicolinate], the melting point is reported as 61 to 63 °C. Compound `O=C(OCc1ccccc1)c1nc(-c2ccc(C(F)(F)F)cc2Cl)ccc1Cl` [F44, benzyl 3-chloro-6-(2-chloro-4-(trifluoromethyl)phenyl)picolinate] has a melting point of 56 to 57 °C.

Tested on: test plant species
Assay: Post-emergent herbicidal activity test (greenhouse, foliar spray, visual growth reduction)
Format: in vivo
Conditions: post-emergence, 336 h, ALOMY: blackgrass (Alopecurus myosuroides), 140 g ai/ha, 14 days after application, read-out: Visual Growth Reduction (%) 14 Days After Application, ALOMY
In short: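 Plants grown in greenhouse (15 h photoperiod, 23-29° C day/22-28° C night) to first or second true leaf stage were sprayed overhead with compound in acetone/water/isopropanol/DMSO/crop oil/X-77 carrier at 187 L/ha. Injury was scored visually after 14 d on a 0-100% scale versus solvent-blank and untreated controls.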
`COC(=O)c1nc(-c2ccc(C(F)(F)F)cc2Cl)cc(C)c1Cl` [F33, methyl 3-chloro-6-(2-chloro-4-(trifluoromethyl)phenyl)-4-methylpicolinate] gave a pest or weed control at 140 g/ha of 0 to 29%. Work on `O=C(OCc1ccccc1)c1nc(-c2ccc(C(F)(F)F)cc2Cl)ccc1Cl` [F44, benzyl 3-chloro-6-(2-chloro-4-(trifluoromethyl)phenyl)picolinate] yielded a pest or weed control at 140 g/ha of 30 to 44%.

Same assay, conditions: post-emergence, 336 h, AMARE: redroot pigweed (Amaranthus retroflexus), 140 g ai/ha, 14 days after application, read-out: Visual Growth Reduction (%) 14 Days After Application, AMARE
With `COC(=O)c1nc(-c2ccc(C(F)(F)F)cc2Cl)cc(C)c1Cl` [F33, methyl 3-chloro-6-(2-chloro-4-(trifluoromethyl)phenyl)-4-methylpicolinate] the pest or weed control at 140 g/ha was 0 to 29%. Compound `O=C(OCc1ccccc1)c1nc(-c2ccc(C(F)(F)F)cc2Cl)ccc1Cl` [F44, benzyl 3-chloro-6-(2-chloro-4-(trifluoromethyl)phenyl)picolinate] has a pest or weed control at 140 g/ha of 95 to 100%.

Same assay, conditions: post-emergence, 336 h, AVEFA: wild oat (Avena fatua), 140 g ai/ha, 14 days after application, read-out: Visual Growth Reduction (%) 14 Days After Application, AVEFA
`COC(=O)c1nc(-c2ccc(C(F)(F)F)cc2Cl)cc(C)c1Cl` [F33, methyl 3-chloro-6-(2-chloro-4-(trifluoromethyl)phenyl)-4-methylpicolinate] gave a pest or weed control at 140 g/ha of 0 to 29%. `O=C(OCc1ccccc1)c1nc(-c2ccc(C(F)(F)F)cc2Cl)ccc1Cl` [F44, benzyl 3-chloro-6-(2-chloro-4-(trifluoromethyl)phenyl)picolinate] showed a pest or weed control at 140 g/ha of 45 to 59%.

Same assay, conditions: post-emergence, 336 h, CHEAL: lambsquarters (Chenopodium album), 140 g ai/ha, 14 days after application, read-out: Visual Growth Reduction (%) 14 Days After Application, CHEAL
With `COC(=O)c1nc(-c2ccc(C(F)(F)F)cc2Cl)cc(C)c1Cl` [F33, methyl 3-chloro-6-(2-chloro-4-(trifluoromethyl)phenyl)-4-methylpicolinate] the pest or weed control at 140 g/ha was 45 to 59%. `O=C(OCc1ccccc1)c1nc(-c2ccc(C(F)(F)F)cc2Cl)ccc1Cl` [F44, benzyl 3-chloro-6-(2-chloro-4-(trifluoromethyl)phenyl)picolinate] showed a pest or weed control at 140 g/ha of 95 to 100%.

Same assay, conditions: post-emergence, 336 h, CIRAR: canada thistle (Cirsium arvense), 140 g ai/ha, 14 days after application, read-out: Visual Growth Reduction (%) 14 Days After Application, CIRAR
With `COC(=O)c1nc(-c2ccc(C(F)(F)F)cc2Cl)cc(C)c1Cl` [F33, methyl 3-chloro-6-(2-chloro-4-(trifluoromethyl)phenyl)-4-methylpicolinate] the pest or weed control at 140 g/ha was 45 to 59%. Work on `O=C(OCc1ccccc1)c1nc(-c2ccc(C(F)(F)F)cc2Cl)ccc1Cl` [F44, benzyl 3-chloro-6-(2-chloro-4-(trifluoromethyl)phenyl)picolinate] yielded a pest or weed control at 140 g/ha of 95 to 100%.

Same assay, conditions: post-emergence, 336 h, CYPES: yellow nutsedge (Cyperus esculentus), 140 g ai/ha, 14 days after application, read-out: Visual Growth Reduction (%) 14 Days After Application, CYPES
For `COC(=O)c1nc(-c2ccc(C(F)(F)F)cc2Cl)cc(C)c1Cl` [F33, methyl 3-chloro-6-(2-chloro-4-(trifluoromethyl)phenyl)-4-methylpicolinate], the pest or weed control at 140 g/ha was 0 to 29%. Work on `O=C(OCc1ccccc1)c1nc(-c2ccc(C(F)(F)F)cc2Cl)ccc1Cl` [F44, benzyl 3-chloro-6-(2-chloro-4-(trifluoromethyl)phenyl)picolinate] yielded a pest or weed control at 140 g/ha of 0 to 29%.

Same assay, conditions: post-emergence, 336 h, DIGSA: crabgrass (Digitaria sanguinalis), 140 g ai/ha, 14 days after application, read-out: Visual Growth Reduction (%) 14 Days After Application, DIGSA
Work on `COC(=O)c1nc(-c2ccc(C(F)(F)F)cc2Cl)cc(C)c1Cl` [F33, methyl 3-chloro-6-(2-chloro-4-(trifluoromethyl)phenyl)-4-methylpicolinate] yielded a pest or weed control at 140 g/ha of 30 to 44%. `O=C(OCc1ccccc1)c1nc(-c2ccc(C(F)(F)F)cc2Cl)ccc1Cl` [F44, benzyl 3-chloro-6-(2-chloro-4-(trifluoromethyl)phenyl)picolinate] showed a pest or weed control at 140 g/ha of 75 to 84%.

Same assay, conditions: post-emergence, 336 h, ECHCG: barnyardgrass (Echinochloa crus-galli), 140 g ai/ha, 14 days after application, read-out: Visual Growth Reduction (%) 14 Days After Application, ECHCG
Compound `COC(=O)c1nc(-c2ccc(C(F)(F)F)cc2Cl)cc(C)c1Cl` [F33, methyl 3-chloro-6-(2-chloro-4-(trifluoromethyl)phenyl)-4-methylpicolinate] has a pest or weed control at 140 g/ha of 0 to 29%. Compound `O=C(OCc1ccccc1)c1nc(-c2ccc(C(F)(F)F)cc2Cl)ccc1Cl` [F44, benzyl 3-chloro-6-(2-chloro-4-(trifluoromethyl)phenyl)picolinate] has a pest or weed control at 140 g/ha of 45 to 59%.

Same assay, conditions: post-emergence, 336 h, IPOHE: ivy-leaf morning glory (Ipomoea hederacea), 140 g ai/ha, 14 days after application, read-out: Visual Growth Reduction (%) 14 Days After Application, IPOHE
Work on `COC(=O)c1nc(-c2ccc(C(F)(F)F)cc2Cl)cc(C)c1Cl` [F33, methyl 3-chloro-6-(2-chloro-4-(trifluoromethyl)phenyl)-4-methylpicolinate] yielded a pest or weed control at 140 g/ha of 85 to 94%. `O=C(OCc1ccccc1)c1nc(-c2ccc(C(F)(F)F)cc2Cl)ccc1Cl` [F44, benzyl 3-chloro-6-(2-chloro-4-(trifluoromethyl)phenyl)picolinate] showed a pest or weed control at 140 g/ha of 95 to 100%.

Same assay, conditions: post-emergence, 336 h, KCHSC: kochia (Bassia scoparia), 140 g ai/ha, 14 days after application, read-out: Visual Growth Reduction (%) 14 Days After Application, KCHSC
Compound `COC(=O)c1nc(-c2ccc(C(F)(F)F)cc2Cl)cc(C)c1Cl` [F33, methyl 3-chloro-6-(2-chloro-4-(trifluoromethyl)phenyl)-4-methylpicolinate] has a pest or weed control at 140 g/ha of 0 to 29%. In the case of `O=C(OCc1ccccc1)c1nc(-c2ccc(C(F)(F)F)cc2Cl)ccc1Cl` [F44, benzyl 3-chloro-6-(2-chloro-4-(trifluoromethyl)phenyl)picolinate], the pest or weed control at 140 g/ha is reported as 85 to 94%.

Same assay, conditions: post-emergence, 336 h, ORYSA: rice (Oryza sativa), 140 g ai/ha, 14 days after application, read-out: Visual Growth Reduction (%) 14 Days After Application, ORYSA
In the case of `COC(=O)c1nc(-c2ccc(C(F)(F)F)cc2Cl)cc(C)c1Cl` [F33, methyl 3-chloro-6-(2-chloro-4-(trifluoromethyl)phenyl)-4-methylpicolinate], the pest or weed control at 140 g/ha is reported as 0 to 29%. With `O=C(OCc1ccccc1)c1nc(-c2ccc(C(F)(F)F)cc2Cl)ccc1Cl` [F44, benzyl 3-chloro-6-(2-chloro-4-(trifluoromethyl)phenyl)picolinate] the pest or weed control at 140 g/ha was 0 to 29%.

Same assay, conditions: post-emergence, 336 h, SETFA: giant foxtail (Setaria faberi), 140 g ai/ha, 14 days after application, read-out: Visual Growth Reduction (%) 14 Days After Application, SETFA
Compound `COC(=O)c1nc(-c2ccc(C(F)(F)F)cc2Cl)cc(C)c1Cl` [F33, methyl 3-chloro-6-(2-chloro-4-(trifluoromethyl)phenyl)-4-methylpicolinate] has a pest or weed control at 140 g/ha of 0 to 29%. Compound `O=C(OCc1ccccc1)c1nc(-c2ccc(C(F)(F)F)cc2Cl)ccc1Cl` [F44, benzyl 3-chloro-6-(2-chloro-4-(trifluoromethyl)phenyl)picolinate] has a pest or weed control at 140 g/ha of 85 to 94%.

Same assay, conditions: post-emergence, 336 h, SORVU: grain sorghum (Sorghum vulgare), 140 g ai/ha, 14 days after application, read-out: Visual Growth Reduction (%) 14 Days After Application, SORVU
In the case of `COC(=O)c1nc(-c2ccc(C(F)(F)F)cc2Cl)cc(C)c1Cl` [F33, methyl 3-chloro-6-(2-chloro-4-(trifluoromethyl)phenyl)-4-methylpicolinate], the pest or weed control at 140 g/ha is reported as 60 to 74%. Work on `O=C(OCc1ccccc1)c1nc(-c2ccc(C(F)(F)F)cc2Cl)ccc1Cl` [F44, benzyl 3-chloro-6-(2-chloro-4-(trifluoromethyl)phenyl)picolinate] yielded a pest or weed control at 140 g/ha of 85 to 94%.

Same assay, conditions: post-emergence, 336 h, STEME: common chickweed (Stellaria media), 140 g ai/ha, 14 days after application, read-out: Visual Growth Reduction (%) 14 Days After Application, STEME
`COC(=O)c1nc(-c2ccc(C(F)(F)F)cc2Cl)cc(C)c1Cl` [F33, methyl 3-chloro-6-(2-chloro-4-(trifluoromethyl)phenyl)-4-methylpicolinate] gave a pest or weed control at 140 g/ha of 0 to 29%. `O=C(OCc1ccccc1)c1nc(-c2ccc(C(F)(F)F)cc2Cl)ccc1Cl` [F44, benzyl 3-chloro-6-(2-chloro-4-(trifluoromethyl)phenyl)picolinate] gave a pest or weed control at 140 g/ha of 0 to 29%.

Same assay, conditions: post-emergence, 336 h, TRZAS: wheat, spring (Triticum aestivum), 140 g ai/ha, 14 days after application, read-out: Visual Growth Reduction (%) 14 Days After Application, TRZAS
`COC(=O)c1nc(-c2ccc(C(F)(F)F)cc2Cl)cc(C)c1Cl` [F33, methyl 3-chloro-6-(2-chloro-4-(trifluoromethyl)phenyl)-4-methylpicolinate] gave a pest or weed control at 140 g/ha of 0 to 29%. With `O=C(OCc1ccccc1)c1nc(-c2ccc(C(F)(F)F)cc2Cl)ccc1Cl` [F44, benzyl 3-chloro-6-(2-chloro-4-(trifluoromethyl)phenyl)picolinate] the pest or weed control at 140 g/ha was 75 to 84%.
